Consider one molecule from paper PMC8584730, “Bacillus subtilis ANSB168 Producing D-alanyl-D-alanine Carboxypeptidase Could Alleviate the Immune Injury and Inflammation Induced by Ochratoxin A” (International Journal of Molecular Sciences, 2021).

Each structure is given as a SMILES string.

What is called Km is the substrate concentration at which the rate is half of its maximum.

The target of assay [1] is T1, DacA (Bacillus subtilis, UniProt P08750).
T1 construct: mature form without signal peptide (forward primer encodes Met-Ala-Ser-Asp)
T1 sequence (P08750 32-443): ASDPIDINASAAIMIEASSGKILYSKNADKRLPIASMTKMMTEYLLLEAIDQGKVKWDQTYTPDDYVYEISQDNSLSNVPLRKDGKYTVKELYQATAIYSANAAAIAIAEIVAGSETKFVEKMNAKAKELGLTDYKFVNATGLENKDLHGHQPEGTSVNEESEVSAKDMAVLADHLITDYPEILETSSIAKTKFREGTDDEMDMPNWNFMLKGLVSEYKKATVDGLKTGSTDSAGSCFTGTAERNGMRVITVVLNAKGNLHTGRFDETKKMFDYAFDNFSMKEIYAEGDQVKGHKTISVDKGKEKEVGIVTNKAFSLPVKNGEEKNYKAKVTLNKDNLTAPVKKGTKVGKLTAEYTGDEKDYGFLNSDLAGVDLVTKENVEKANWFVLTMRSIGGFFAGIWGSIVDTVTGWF
The assay can be described thus: HPLC-fluorescence of OTA hydrolysis. The class given is biochemical. Particulars: 37 °C, optimal pH 7.0; amide bond hydrolysis to ochratoxin alpha.

The target in assay [2] is T2, DacB (Bacillus subtilis, UniProt P35150).
T2 construct: mature form without signal peptide (forward primer encodes Met-Ala-Ile-Asp-Val)
T2 sequence (P35150 28-382): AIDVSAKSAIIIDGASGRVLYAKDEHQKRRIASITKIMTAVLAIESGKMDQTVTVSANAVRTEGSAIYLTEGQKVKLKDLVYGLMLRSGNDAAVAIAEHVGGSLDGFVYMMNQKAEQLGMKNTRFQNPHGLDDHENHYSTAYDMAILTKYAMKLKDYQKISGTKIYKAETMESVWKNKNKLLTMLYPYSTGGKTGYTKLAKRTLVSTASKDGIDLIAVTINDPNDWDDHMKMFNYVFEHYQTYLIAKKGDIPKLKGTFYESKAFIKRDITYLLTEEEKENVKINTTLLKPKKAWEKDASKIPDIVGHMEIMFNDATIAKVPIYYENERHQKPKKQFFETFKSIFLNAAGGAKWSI
Briefly: HPLC-fluorescence of OTA hydrolysis. The class given is biochemical. Particulars: 37 °C, optimal pH 7.5; amide bond hydrolysis to ochratoxin alpha.

As to `C[C@@H]1Cc2c(Cl)cc(C(=O)N[C@@H](Cc3ccccc3)C(=O)O)c(O)c2C(=O)O1` [Ochratoxin A, 7-carboxyl-5-chloro-8-hydroxyl-3,4-dihydro-3R-methyl-isocoumarin-7-L-β-phenylalanine], the Km in assay [1] was 6.79 µM; in assay [2], 2.82 µM.
